Experimental data taken from EPA's ToxValDB 9.5.

Test system: Rattus norvegicus
Details: oral, gavage
[1] = developmental, duration: 14 days, M/F, Crl:CD(SD), generation: F1, F1: Pelvis: Pelvis, Ischium Incompletely Ossified + F1: Pelvis: Pelvis, Pubis Incompletely Ossified + F1: Skull: Interparietal, Incomplete …
[2] = developmental, duration: 14 days, M/F, Crl:CD(SD), generation: F1, F1: Skull: Supraoccipital, Incomplete Ossification
[3] = developmental, duration: 14 days, M/F, Sprague-Dawley, generation: F1, F1: Developmental: Pelvic Girdle: Ischium, Incomplete Ossification + F1: Developmental: Pelvic Girdle: Pubis, Incomplete Ossification + F1: …
[4] = developmental, duration: 14 days, M/F, Sprague-Dawley, generation: F1, F1: Developmental: Pelvis: Pelvis, Ischium Incompletely Ossified + F1: Developmental: Pelvis: Pelvis, Pubis Incompletely Ossified + F1: …
[5] = developmental, duration: 14 days, M/F, Sprague-Dawley, generation: F1, F1: Pelvic Girdle: Ischium, Incomplete Ossification + F1: Pelvic Girdle: Pubis, Incomplete Ossification + F1: Rib: Rib, Thick + F1: Rib: Rib…
[6] = developmental, M/F, Sprague-Dawley, generation: F1, F1: Developmental: Whole Body: Lactation Index + F1: Developmental: Whole Body: Live Pups Born + F1: Developmental: Whole Body: No. of Pups …
[7] = reproduction developmental, duration: 14 days, F, Crl:CD(SD), generation: P0, P0: Developmental: Uterus: Implantation + P0: General Toxicity: Whole Body: Necropsy Appeared Normal + P0: Reproductive: Ovary: Corpora …
[8] = reproduction developmental, duration: 14 days, F, Crl:CD(SD), generation: P0, P0: Developmental: Uterus: Implantation + P0: Reproductive: Whole Body: Length of Gestation
[9] = reproduction developmental, duration: 14 days, F, Crl:CD(SD), generation: P0, P0: Whole Body: Clinical Observations + P0: Whole Body: Maternal Body Weight + P0: Whole Body: Maternal Body Weight Change + P0: Whole Body…
[10] = reproduction developmental, duration: 14 days, F, Crl:CD(SD), generation: P0, P0: Whole Body: Maternal Body Weight Change, Corrected
[11] = reproduction developmental, duration: 14 days, F, Sprague-Dawley, generation: P0, P0: Developmental: Uterus: Implantation + P0: Developmental: Uterus: Resorptions, Early + P0: Developmental: Uterus: Resorptions, Late + P0…
[12] = reproduction developmental, duration: 14 days, F, Sprague-Dawley, generation: P0, P0: Whole Body: Maternal Body Weight + P0: Whole Body: Maternal Body Weight Change + P0: Whole Body: Maternal Body Weight, Corrected
[13] = reproduction developmental, duration: 14 days, M/F, Crl:CD(SD), generation: F1, F1: Whole Body: Pup Weight + F1: Whole Body: Viability Index
[14] = reproduction developmental, duration: 70 days, F, Crl:CD(SD), generation: P0, P0: Uterus: Uterus (With Cervix) Weight, Absolute + P0: Whole Body: Clinical Observations + P0: Whole Body: Maternal Food Consumption, …
[15] = reproduction developmental, duration: 70 days, F, Crl:CD(SD), generation: P0, P0: Uterus: Uterus (With Cervix) Weight, Relative + P0: Whole Body: Maternal Body Weight Change + P0: Whole Body: Mortality + P0: Whole Body…
[16] = reproduction developmental, duration: 70 days, M/F, Crl:CD(SD), generation: F1, F1: Whole Body: Clinical Observations + F1: Whole Body: Lactation Index + F1: Whole Body: Pup Mortality + F1: Whole Body: Pup Weight …
[17] = reproduction developmental, duration: 70 days, M/F, Crl:CD(SD), generation: F1, F1: Whole Body: Pup Mortality + F1: Whole Body: Pup Weight Relative to Litter
[18] = reproduction developmental, duration: 70 days, M, Crl:CD(SD), generation: P0, P0: Whole Body: Clinical Observations + P0: Whole Body: Mortality

Question: For OCCC(F)(F)C(F)(F)C(F)(F)C(F)(F)C(F)(F)C(F)(F)F [2-(Perfluorohexyl)ethanol], which NOAEL (developmental, duration: 14 days, M/F, Crl:CD(SD), generation: F1, F1: Developmental: Bone: Skeletal Malformation + F1: Developmental: Whole Body: Nursing Behavior + F1: Developmental: Whole Body: Pup Weight…) is on record?
Answer: The NOAEL was 75 mg/kg-day.

Question: And the LEL [1]?
Answer: The LEL was 250 mg/kg-day.

Question: And the NEL [1]?
Answer: Its NEL is 125 mg/kg-day.

Question: And the NEL (developmental, duration: 14 days, M/F, Crl:CD(SD), generation: F1, F1: Skull: Frontal, Incomplete Ossification + F1: Skull: Zygomatic Arch, Incomplete Ossification + F1: Uterus: Fetuses, Dead + F1: Uterus: …)?
Answer: The NEL was 250 mg/kg-day.

Question: What about the LEL [2] of the same compound?
Answer: The LEL was 125 mg/kg-day.

Question: What about the NEL [2] of the same compound?
Answer: The NEL was 25 mg/kg-day.

Question: What about the LOAEL [3] of the same compound?
Answer: The LOAEL was 125 mg/kg-day.

Question: What about the NOAEL [3] of the same compound?
Answer: The NOAEL was 25 mg/kg-day.

Question: And the LOAEL [4]?
Answer: The LOAEL was 125 mg/kg-day.

Question: What about the NOAEL [4] of the same compound?
Answer: Its NOAEL is 25 mg/kg-day.

Question: What about the LEL [5] of the same compound?
Answer: Its LEL is 250 mg/kg-day.

Question: And the NEL [5]?
Answer: The NEL was 125 mg/kg-day.

Question: What about the LOAEL [6] of the same compound?
Answer: The LOAEL was 125 mg/kg-day.

Question: What about the NOAEL [6] of the same compound?
Answer: The NOAEL was 25 mg/kg-day.

Question: What about the LOAEL [7] of the same compound?
Answer: Its LOAEL is 225 mg/kg-day.

Question: And the NOAEL [7]?
Answer: Its NOAEL is 75 mg/kg-day.

Question: And the LOAEL [8]?
Answer: The LOAEL was 225 mg/kg-day.

Question: What about the NOAEL [8] of the same compound?
Answer: The NOAEL was 75 mg/kg-day.

Question: And the NEL (reproduction developmental, duration: 14 days, F, Crl:CD(SD), generation: P0, P0: Ovary: Corpora Lutea + P0: Uterus: Implantation + P0: Uterus: Resorptions, Early + P0: Uterus: Resorptions, Late + P0: Uterus: …)?
Answer: The NEL was 250 mg/kg-day.

Question: What about the NEL (reproduction developmental, duration: 14 days, F, Crl:CD(SD), generation: P0, P0: Ovary: Corpora Lutea + P0: Uterus: Implantation + P0: Whole Body: Length of Gestation + P0: Whole Body: Necropsy Appeared Normal + P0: …) of the same compound?
Answer: The NEL was 225 mg/kg-day.

Question: What about the NOAEL (reproduction developmental, duration: 14 days, F, Crl:CD(SD), generation: P0, P0: Reproductive: Ovary: Corpora Lutea + P0: Reproductive: Whole Body: Reproductive Performance) of the same compound?
Answer: The NOAEL was 225 mg/kg-day.

Question: What about the LEL [9] of the same compound?
Answer: Its LEL is 250 mg/kg-day.

Question: What about the NEL [9] of the same compound?
Answer: The NEL was 125 mg/kg-day.

Question: What about the LEL [10] of the same compound?
Answer: Its LEL is 125 mg/kg-day.

Question: What about the NEL [10] of the same compound?
Answer: The NEL was 25 mg/kg-day.

Question: What about the LOAEL [11] of the same compound?
Answer: The LOAEL was 125 mg/kg-day.

Question: What about the NOAEL [11] of the same compound?
Answer: Its NOAEL is 25 mg/kg-day.

Question: And the NEL (reproduction developmental, duration: 14 days, F, Sprague-Dawley, generation: P0, P0: Macroscopic Observations + P0: Ovary: Corpora Lutea + P0: Uterus: Implantation + P0: Uterus: Resorptions, Early + P0: Uterus: …)?
Answer: Its NEL is 250 mg/kg-day.

Question: What about the NOAEL (reproduction developmental, duration: 14 days, F, Sprague-Dawley, generation: P0, P0: Reproductive: Ovary: Corpora Lutea + P0: Reproductive: Uterus: Uterine Weight, Gravid) of the same compound?
Answer: Its NOAEL is 250 mg/kg-day.

Question: What about the LEL [12] of the same compound?
Answer: Its LEL is 250 mg/kg-day.

Question: What about the NEL [12] of the same compound?
Answer: Its NEL is 125 mg/kg-day.

Question: And the NEL (reproduction developmental, duration: 14 days, M/F, Crl:CD(SD), generation: F1, F1: Whole Body: Nursing Behavior + F1: Whole Body: Skeletal Malformation)?
Answer: The NEL was 225 mg/kg-day.

Question: What about the LEL [13] of the same compound?
Answer: Its LEL is 225 mg/kg-day.

Question: What about the NEL [13] of the same compound?
Answer: The NEL was 75 mg/kg-day.

Question: And the NEL (reproduction developmental, duration: 34 days, M, Crl:CD(SD), generation: P0, P0: Central Nervous System: Latency to mount + P0: Whole Body: Necropsy Appeared Normal)?
Answer: The NEL was 225 mg/kg-day.

Question: And the NEL (reproduction developmental, duration: 70 days, F, Crl:CD(SD), generation: P0, P0: Lung: Lung Histopathology + P0: Mammary Gland: Mammary Gland Histopathology + P0: Ovaries: Ovary Histopathology + P0: Ovary: Ovary …)?
Answer: The NEL was 250 mg/kg-day.

Question: What about the LEL [14] of the same compound?
Answer: Its LEL is 125 mg/kg-day.

Question: What about the NEL [14] of the same compound?
Answer: The NEL was 25 mg/kg-day.

Question: What about the LEL [15] of the same compound?
Answer: Its LEL is 250 mg/kg-day.

Question: What about the NEL [15] of the same compound?
Answer: The NEL was 125 mg/kg-day.

Question: And the LEL [16]?
Answer: Its LEL is 250 mg/kg-day.

Question: And the NEL [16]?
Answer: Its NEL is 125 mg/kg-day.

Question: And the NEL (reproduction developmental, duration: 70 days, M/F, Crl:CD(SD), generation: F1, F1: Whole Body: Live Pups Born + F1: Whole Body: Mean Pups Delivered + F1: Whole Body: Pup Mortality)?
Answer: The NEL was 250 mg/kg-day.

Question: And the LEL [17]?
Answer: The LEL was 125 mg/kg-day.

Question: What about the NEL [17] of the same compound?
Answer: Its NEL is 25 mg/kg-day.

Question: What about the NEL (reproduction developmental, duration: 70 days, M, Crl:CD(SD), generation: P0, P0: Epididymides: Epididymides Histopathology + P0: Epididymis: Epididymis Weight, Left, Absolute + P0: Epididymis: Epididymis Weight, Left…) of the same compound?
Answer: The NEL was 250 mg/kg-day.

Question: And the LEL [18]?
Answer: The LEL was 125 mg/kg-day.

Question: What about the NEL [18] of the same compound?
Answer: Its NEL is 25 mg/kg-day.
